Test [1] concerns differentiated 3T3-L1 mouse adipocyte cells. Nature of the test: Adipocyte glucose consumption in differentiated 3T3-L1 cells (colorimetric glucose assay of the medium). Conditions: 3T3-L1, 24 h, compound 10 μM, loss of glucose from culture medium, mean fold change (compound/DMSO). Format: cell-based. The protocol:
Activity of compounds on adipocyte glucose consumption was tested in differentiated 3T3-L1 mouse adipocyte cells. 3T3-L1 preadipocytes (ATCC) were routinely cultured in a growth medium composed of DMEM high-glucose (Sigma), 10% FBS (Gibco), 10 U/ml penicillin and 10 μg/ml streptomycin (P/S; Gibco). To induce adipogenic differentiation, a confluent layer of 3T3-L1 cells were incubated with the growth medium containing 2 μM rosiglitazone, 1 μM dexamethasone, 500 μM IBMX, and 1 μg/ml insulin (Sigma). Forty-eight (48) hours later (on day 2) and on days 4 and 6, medium of the cells was replaced with fresh medium containing 1 μg/ml insulin. On days 8 and 10, the medium was refreshed with regular growth medium and addition of insulin was omitted. On day 11, medium of the cells were 10 replaced with fresh medium containing either the indicated compounds (10 μM) or the vehicle in which the compounds were dissolved (DMSO). The final concentration of DMSO was 0.1% (v/v). Growth medium containing 0.1% DMSO was incubated in culture wells containing no cells and used as control. 24 hours later, medium was harvested and subjected to centrifugation at 10,000 g for 5 min. Glucose concentration in the supernatants was determined using a 15 colorimetric assay (Glucose Assay Kit I, Eton Biosciences). Glucose consumption in compound and vehicle treated cells was measured as loss of glucose from the culture medium and represented as mean fold change (compound/DMSO)±standard deviation (SD).

Test [2] addresses T1, His6 tagged human recombinant FABP4 (Homo sapiens, UniProt P15090).
T1 construct: purchased Cayman Chemicals 10009549
Briefly: FABP4 TR-FRET assay: displacement of fluorescent fatty acid BODIPY FL C12. The following applies: inhibition of BODIPY FL C12 binding to His6-FABP4; 1.2 μL of 1.085 mM compound in DMSO per well; triplicates, mean percent inhibition. From the text:
Activity of compounds with FABP4 was profiled using a Terbium (Tb) based time resolved fluorescence energy transfer (TR-FRET) assay. The assay measures the compound mediated displacement of the fluorescent fatty acid BODIPY FL C12 (Thermo Fisher; catalog number D3822) from His6 tagged human recombinant FABP4 (His6-FABP4; Cayman Chemicals, catalog number 10009549) via recording the energy transfer from TB donor molecule on anti-His6-tag antibody to acceptor BODIPY moiety. Briefly, compounds and BODIPY FL C12 were prepared at a concentration of 1.085 mM and 4.2 μM, respectively, in DMSO. 1.2 μL of each compound or DMSO (vehicle control) and 1.2 μL of BODIPY FL C12 were added into the wells of a 384-well black polypropylene plate. His6-FABP4 and Tb anti-His6 antibody were prepared in the assay buffer (25 mM Tris/HCl, pH 7.4, 0.4 mg/ml γ-globulins, 0.010% NP-40, 1 mM DTT) at a concentration of 83 nM and 49.6 nM, respectively. The protein and antibody solutions were then mixed at a ratio of 34:7 (v/v) and incubated on ice for 30 minutes. The assay was initiated by adding 41 μL of the resulting protein/antibody solution into the wells containing the compounds and BODIPY FL C12. The plate was centrifuged and incubated at room temperature for 10 min. The TR-FRET signals were recorded using an EnVision Multilabel plate reader (PerkinElmer; TB excitation 320 nm, BODIPY FL C12 emission 520 nm; TB emission 615 nm). Relative fluorescence ratio (520 nm*10,000/615 nm) were used to calculate the compound mediated inhibition of BODIPY C12 FL fatty acid binding to FABP4. The compounds were tested in triplicates and the results were represented as mean percent inhibition (compound*100/DMSO)±standard deviation (SD). Glucose consumption and FABP4 inhibition is shown below in Table 3 below. The compounds showing no inhibition of activity in the TR-FRET assay are marked as N.A. N.D. stands for “not determined”.
(In TR-FRET formats the signal depends on donor and acceptor labels being close together.)

This note sets out measurements from US20230183179A1, “NOVEL CELL METABOLISM MODULATING COMPOUNDS AND USES THEREOF” (CRESCENTA BIOSCIENCES, priority 2020, published 2023).

T1 sequence (P15090 whole entry): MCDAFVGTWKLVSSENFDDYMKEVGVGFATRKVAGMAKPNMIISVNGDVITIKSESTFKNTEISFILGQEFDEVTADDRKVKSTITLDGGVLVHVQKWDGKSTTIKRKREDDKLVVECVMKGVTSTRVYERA

What is called fold induction is the ratio of treated to control signal. Read a low fold induction as little rise in signal. `CCCCCCc1ccc2nc(CC3SC(=O)NC3=O)cc(-c3ccccc3)c2c1` (centres unmarked) [5-[(6-hexyl-4-phenylquinolin-2-yl)methyl]-1,3-thi azolidine-2,4-dione] displayed a fold induction at 10 µM in test [1] of 1.33.
For orientation: inhibition means the change of the read-out against control, counted positive when it falls. As for `CN(CC(=O)O)c1cc(-c2ccccc2)c2cc(CCc3nc4ccccc4n3C)ccc2n1` [2-[methyl({6-[2-(1-methyl-1H-1,3-benzodiazol-2-yl)ethyl]-4-phenylquinolin-2-yl})amino]acetic acid], the inhibition at 1085 µM (stock) in test [2] is 30.3%.
In test [1], `CCCCc1ccc2nc(N(C)CCC(=O)O)cc(-c3ccccc3)c2c1` [3-[(6-butyl-4-phenylquinolin-2-yl)(methyl)amino]propanoic acid] registered a fold induction at 10 µM of 1.1.
In the case of `CN(CC(=O)O)c1cc(-c2ccccc2)c2cc(CCN3CCc4ccccc4C3)ccc2n1` [2-[methyl({4-phenyl-6-[2-(1,2,3,4-tetrahydroisoquinolin-2-yl)ethyl]quinolin-2-yl})amino]acetic acid], the inhibition at 1085 µM (stock) in test [2] was determined as 21.7%.
As for `CCCCCCc1ccc2nc(N(C)CC(=O)O)cc(-c3cccc(C#N)c3)c2c1` [2-{[4-(3-cyanophenyl)-6-hexylquinolin-2-yl](methyl)amino}acetic acid], in test [1], the fold induction at 10 µM came to 1.26.
`CCCCCCc1ccc2nc(N3CC(C(=O)O)C3)cc(-c3ccccc3)c2c1` [1-(6-hexyl-4-phenylquinolin-2-yl)azetidine-3-carboxylic acid]: the fold induction at 10 µM in test [1] is 1.27.
For `CCN(CC)CCc1ccc2nc(N(C)CC(=O)O)cc(-c3ccccc3)c2c1` [2-({6-[2-(diethylamino)ethyl]-4-phenylquinolin-2-yl}(methyl)amino)acetic acid], the inhibition at 1085 µM (stock) in test [2] stood at 5.17%.
For `O=C(O)C1CCN(c2cc(-c3ccccc3)c3cc(CCc4ccccc4)ccc3n2)C1` (centres unmarked) [1-[4-phenyl-6-(2-phenylethyl)quinolin-2-yl]pyrrolidine-3-carboxylic acid], the fold induction at 10 µM in test [1] worked out at 1.21.
In test [1], `CCCCCCc1ccc2nc(N(C)CC(=O)O)cc(-c3ccccc3F)c2c1` [2-{[4-(2-fluorophenyl)-6-hexylquinolin-2-yl](methyl)amino}acetic acid] came in with a fold induction at 10 µM of 1.26.
In test [1], `CCCCCCc1ccc2nc(N(C)c3nn[nH]n3)cc(-c3ccccc3)c2c1` [6-hexyl-N-methyl-4-phenyl-N-(2H-1,2,3,4-tetrazol-5-yl)quinolin-2-amine] displayed a fold induction at 10 µM of 1.11.
As to `CCCCCCc1ccc2nc([C@@H]3C[C@H]3C(=O)O)cc(-c3ccccc3)c2c1` (relative stereo) [trans-2-(6-hexyl-4-phenylquinolin-2-yl)cyclopropane-1-carboxylic acid], in test [1], the fold induction at 10 µM amounted to 1.14.
The same measure, in the same setting: the value for `CCCCCCc1ccc2nc(N(C)CC(=O)O)cc(-c3ccccc3C(=O)O)c2c1` [2-{2-[(carboxymethyl)(methyl)amino]-6-hexylquinolin-4-yl}benzoic acid] was 1.17; that for `CCCCc1ccc2nc(N(C)CC(=O)O)cc(-c3ccccc3)c2c1` [2-[(6-butyl-4-phenylquinolin-2-yl)(methyl)amino]acetic acid] was 1.37.
Turning to `CN(CC(=O)O)c1cc(-c2ccccc2)c2cc(CCN3CCCC3)ccc2n1` [2-[methyl({4-phenyl-6-[2-(pyrrolidin-1-yl)ethyl]quinolin-2-yl})amino]acetic acid], the inhibition at 1085 µM (stock) in test [2] turned out to be 2.04%.
For `CCCCCCCc1ccc2nc(N(C)CC(=O)O)cc(-c3ccccc3)c2c1` [2-[(6-heptyl-4-phenylquinolin-2-yl)(methyl)amino]acetic acid], the fold induction at 10 µM in test [1] is 1.4.
The same measure, in the same setting: the value for `CCc1ccc(-c2ccc3nc(N(C)CC(=O)O)cc(-c4ccccc4)c3c2)cc1` [2-{[6-(4-ethylphenyl)-4-phenylquinolin-2-yl](methyl)amino}acetic acid] was 1.06; that for `CCCC/C=C/c1ccc2nc(N(C)CC(=O)O)cc(-c3ccccc3)c2c1` [2-({6-[(1E)-hex-1-en-1-yl]-4-phenylquinolin-2-yl}(methyl)amino)acetic acid] was 1.32.
On the same count and under the same terms, the value for `CN(CC(=O)O)c1cc(-c2ccccc2)c2cc(/C=C/c3ccccc3)ccc2n1` [2-[methyl({4-phenyl-6-[(1E)-2-phenylethenyl]quinolin-2-yl})amino]acetic acid] was 1.21.
Molecule `CN(CC(=O)O)c1cc(-c2ccccc2)c2cc(CCc3ccccn3)ccc2n1` [2-[methyl({4-phenyl-6-[2-(pyridin-2-yl)ethyl]quinolin-2-yl})amino]acetic acid] registered a fold induction at 10 µM in test [1] of 1.39.
`CCCCCCc1ccc2nc(NCC(=O)O)cc(-c3ccc(F)cc3)c2c1` [2-([4-(4-fluorophenyl)-6-hexylquinolin-2-yl]amino}acetic acid]: in test [1], the fold induction at 10 µM was determined as 1.12.
Consider `CN(CC(=O)O)c1cc(-c2ccccc2)c2cc(CCc3ccccc3)ccc2n1` [2-{methyl [4-phenyl-6-(2-phenylethyl)quinolin-2-yl]amino}acetic acid], for which the fold induction at 10 µM in test [1] is 1.48.
In test [1], `CCCCCCc1ccc2nc(C(C)CC(=O)O)cc(-c3ccccc3)c2c1` (centres unmarked) [3-(6-hexyl-4-phenylquinolin-2-yl)butanoic acid] returned a fold induction at 10 µM of 1.3.
For `CCCCCCc1ccc2nc(N(C)CC(=O)NCCO)cc(-c3ccccc3)c2c1` [2-[(6-hexyl-4-phenylquinolin-2-yl)(methyl)amino]-N-(2-hydroxyethyl)acetamide], the fold induction at 10 µM in test [1] is 1.11.
The same measure, in the same setting: as for `CCCCCCc1ccc2nc(N(C)CC(=O)O)cc(-c3c(C)noc3C)c2c1` [2-{[4-(3,5-dimethyl-1,2-oxazol-4-yl)-6-hexylquinolin-2-yl](methyl)amino}acetic acid], the figure is 1.22.
As to `CN(CC(=O)O)c1cc(-c2ccccc2)c2cc(CCN3CCc4ccccc43)ccc2n1` [2-({6-[2-(2,3-dihydro-1H-indol-1-yl)ethyl]-4-phenylquinolin-2-yl}(methyl)amino)acetic acid], in test [2], the inhibition at 1085 µM (stock) came out at 76.3%.
`CCCCCCc1ccc2nc(N3CCC(C(=O)O)C3)cc(-c3ccccc3)c2c1` (centres unmarked) [1-(6-hexyl-4-phenylquinolin-2-yl)pyrrolidine-3-carboxylic acid]: the fold induction at 10 µM in test [1] turned out to be 1.24.
For `CCCCCCc1ccc2nc(/C=C3/SC(=O)NC3=O)cc(-c3ccccc3)c2c1` [5-[(6-hexyl-4-phenylquinolin-2-yl)methylidene]-1,3-thiazolidine-2,4-dione], the fold induction at 10 µM in test [1] came out at 1.29.
The same measure, in the same setting: the value for `CCCCCCc1ccc2nc(N(C)CC(=O)O)cc(-c3cccc(C)c3)c2c1` [2-{[6-hexyl-4-(3-methylphenyl)quinolin-2-yl](methyl)amino}acetic acid] was 1.11; that for `CCCCCCc1ccc2nc([C@H]3C[C@H]3C(=O)O)cc(-c3ccccc3)c2c1` (relative stereo) [cis-2-(6-hexyl-4-phenylquinolin-2-yl)cyclopropane-1-carboxylic acid] was 1.36; that for `CCCCCCCCCCc1ccc2nc(N(C)CC(=O)O)cc(-c3ccc(F)cc3)c2c1` [2-{[6-decyl-4-(4-fluorophenyl)quinolin-2-yl](methyl)amino}acetic acid] was 1.37.
The same measure, in the same setting: as for `CCCCCCc1ccc2nc(OC(C)C(=O)O)cc(-c3ccccc3)c2c1` (centres unmarked) [2-[(6-hexyl-4-phenylquinolin-2-yl)oxy]propanoic acid], the figure is 1.25.
With `CN(CC(=O)O)c1cc(-c2ccccc2)c2cc(CCN3CCC(O)CC3)ccc2n1` [2-({6-[2-(4-hydroxypiperidin-1-yl)ethyl]-4-phenylquinolin-2-yl}(methyl)amino)acetic acid], the inhibition at 1085 µM (stock) in test [2] amounted to 14.3%.
